# According to patent publication US8383554B2, “Quantitative microarray of intact glycolipid CD1d interaction and correlation with cell-based cytokine production” (Academia Sinica, priority 2008, dated 2013):
# “Also recorded” adds a separate entry of the source. Read-outs that look alike come from different tables or passages of the source.
# How the values were obtained:
# [1] = target: T1, mCD1d:Ig fusion protein (CD1d) (Mus musculus, UniProt P11609); experiment: Competitive binding assay on microarray (Ki in solution); settings: for binding to CD1d in competition assay (in words): relative to α-GalCer or parent compound; for Ki: competition against surface compound 1, CD1d ~100-200 nM
# T1 construct: purchased BD Bioscience
# T1 sequence (P11609 22-305 limits assumed): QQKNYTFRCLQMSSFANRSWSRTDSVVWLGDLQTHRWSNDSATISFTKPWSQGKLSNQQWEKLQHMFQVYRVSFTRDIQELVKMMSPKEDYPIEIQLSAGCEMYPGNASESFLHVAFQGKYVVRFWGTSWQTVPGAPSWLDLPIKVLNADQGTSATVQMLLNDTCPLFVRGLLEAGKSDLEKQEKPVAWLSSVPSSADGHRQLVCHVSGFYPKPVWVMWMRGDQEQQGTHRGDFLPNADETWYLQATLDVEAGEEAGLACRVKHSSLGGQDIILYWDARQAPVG
# T1 sequence (P01887 21-119 partner): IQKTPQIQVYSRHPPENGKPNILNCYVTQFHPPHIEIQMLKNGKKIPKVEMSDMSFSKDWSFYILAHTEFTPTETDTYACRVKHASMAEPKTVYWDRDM
# From the text: Determination of Ki. The solution equilibrium dissociation constant (Ki) for glycolipid-CD1d interactions can be determined using microarrays in a competitive assay. The equation that describes the binding of the two ligands to the same site on the protein is identical to that for the competitive inhibition of an enzyme-catalyzed reaction. It is possible to take advantage of the convenience of IC50 measurements and still report inhibitory potency in terms of true Ki values. The final forms of the relationship can be expressed as
# In this assay, the concentration of the protein is kept constant at or near the KD, surf (˜100-200 nM of CD1d). The glass slide is incubated with solutions containing varying concentrations of the glycolipid (covering about two orders of magnitude) and the protein.
# Microarray Fabrication. Microarrays were printed (Genomic Solutions, Gene Machine) by robotic pin (SMP2B, TeleChem International Inc.). Approximately […] of various concentrations of amine-containing compounds 1-4 in DMSO were deposited onto slides from a 384 well plate. The slide for: (1) the scope of printing concentration studies: NHS-coated glass slides were printed with compounds 1-4 at 20 different concentrations (1000, 800, 600, 400, 200, 100, 80, 60, 40, 20, 10, 8, 6, 4, 2, 1, 0.8, 0.6, 0.4, 0.2 μM) from right to left with 10 replicates vertically placed in each sub-array. Six identical sub-arrays were fabricated in a 1×6 pattern and each sub-array consisted of a 20×10 pattern of spots, with a 0.3 mm pitch. After 2 h, the surface of the slide was divided by permanent marker to avoid contamination for later protein incubation; (2) the slide for FIG. 2 was printed with compound 1 with concentrations of 1000 (left most column), 900, 800, 700, 600, 500, 400, 300, 200, 100, 80, 60, 40, 20, 10, 5 μM (right-most column, 16 different conc.) with 16 replicates vertically placed in each grid, and totally 16 replicate (8×2 pattern) sub-arrays in one slide; (3) the slides for Ki determinations: the slides were printed of compound 1 with concentration of 1000, 900, 800 μM from right to left 81 replicates placed in each grid (9×9 pattern) and totally 44 sub-arrays replicates (4×11 pattern, each subarray is approximately 5 mm (width)×6 mm (length) area) in one slide. After 24 hours reaction, the slides were washed with PBST buffer (0.05% Tween 20) for 30 min and then blocked with blocking solution (super-block blocking buffer in PBS, Pierce) for another 1 h. The slides were dried under a flow of argon gas and stored at room temperature in a desiccator. The slides were washed with PBS buffer (pH 7.4) before use.
# Competitive Binding Assay. Solutions of the competitors at different concentration (400 to 0.1 μM) were prepared and 5 μl aliquots incubated with protein (5 μl, 100˜250 nM). The mixture was then placed in a 384 well microtiter plate, covered, and left for five to eight hours. An aliquot of this solution (8 μL) was loaded onto the slides and incubated for 1 hour under a humidifying container at room temperature. The following procedure is the same as above the direct binding assay in washing procedure and applying secondary antibody. To get the data, Each inhibitor was assayed under this system at least three times and average Ki values are reported.
# Data analysis. Extraction of spot intensity data was performed using ArrayVision 8.0 (Applied Precision). The background, calculated as the median of pixel intensities from the local area around each spot, was subtracted from the mean pixel intensity within each spot. To graphically represent the data, the values of the background-subtracted signal intensities were plotted against the known concentration of the protein spotted in the array, using the commercial non-linear regression program GraphPad PRISM 4 (GraphPad, San Diego). The values obtained from the competition assay were plotted against the known concentrations of the competitors applied on the slide. […]
# [2] = test system: human Vα24+ NKT cell line co-cultured with Hela cells transfected with human CD1d; experiment: Cytokine secretion assay using human NKT cell lines, IFN-γ by ELISA; format: cell-based; settings: 10 ng/ml glycolipid, 24 hours; for IFN-γ secretion (in words): relative to α-GalCer
# Method: Generation of Vα24+ human NKT cell lines. Human NKT cell lines, expressing the Vα24+ T cell receptor (TCR), were generated as follows: Vα24+ T cells and CD14+ cells were isolated from leukopaks using magnetic beads (Miltenyi biotec, Auburn, Calif.) coupled to an anti-Vα24+ TCR monoclonal antibody and an anti-CD14 monoclonal antibody, respectively. Immature dendritic cells were generated from the CD14+ cells after a three-day incubation in the presence of 300 U/ml GM-CSF (R&D systems, Minneapolis, Minn.) and 100 U/ml IL-4 (R&D systems, Minneapolis, Minn.). Following irradiation with 3000 rads, the immature dendritic cells were co-cultured with syngeneic Vα24+ T cells in the presence of 100 ng/ml of α-galactosylceramide and 10 IU/ml of IL-2 (R&D systems, Minneapolis, Minn.) for 10 days.
# Cytokine Secretion Assay using human NKT cell lines. Twenty-thousand cells of a human NKT cell line and 2×10^4 Hela cells transfected with human CD1d that had been irradiated for 10,000 rads, were co-cultured in the presence of 10 ng/ml of each glycolipid in a 96-well plate. After culture for 24 hours, the concentration of IFN-γ or IL-4 in the culture supernatants was determined by ELISA (BD Pharmingen, San Diego, Calif.).
# [3] = target: CD1d; settings: read-out: dissociation constant from IEF; cited from earlier work
# [4] = target: CD1d; settings: read-out: dissociation constant from ITC; cited from earlier work
# [5] = Water solubility of glycolipids; format: physicochemical
Compound,binding to CD1d in competition assay (in words) [1],IFN-γ secretion (in words) [2],selectivity IFN-γ vs IL-4 (in words) [2],also measured
CCCCCCCCCCCCCC[C@@H](O)[C@@H](O)[C@H](CO[C@H]1O[C@H](CO)[C@H](O)[C@H](O)[C@H]1O)NC(=O)CCCCCCc1ccccc1 [Compound 12],about one order of magnitude stronger with CD1d than α-GalCer,–,–,–
CCCCCCCCCCCCCC[C@@H](O)[C@@H](O)[C@H](CO[C@H]1O[C@H](CO)[C@H](O)[C@H](O)[C@H]1O)NC(=O)CCCCCCCc1ccccc1 [Compound 13],about one order of magnitude stronger with CD1d than α-GalCer,peak IFN-γ secretions among the spacer chain elongation in acyl modification (11-17),–,–
CCCCCCCCCCCCCC[C@@H](O)[C@@H](O)[C@H](CO[C@H]1O[C@H](CO)[C@H](O)[C@H](O)[C@H]1O)NC(=O)CCCCCCCCCCc1ccccc1 [Compound 16],about one order of magnitude stronger with CD1d than α-GalCer,–,–,–
CCCCCCCCCCCCCC[C@@H](O)[C@@H](O)[C@H](CO[C@H]1O[C@H](CO)[C@H](O)[C@H](O)[C@H]1O)NC(=O)CCCCCCCCCCCCCCc1ccccc1 [Compound 17],weaker affinities to CD1d,less IFN-γ production,low selectivity between IFN-γ and IL-4,–
CCCCCCCCCCCCCC[C@@H](O)[C@@H](O)[C@H](CO[C@H]1O[C@H](CO)[C@H](O)[C@H](O)[C@H]1O)NC(=O)CCCCCCCc1ccc(F)cc1 [Compound 18],"bind most strongly to CD1d; also recorded: enhance the binding by approximately one order of magnitude, compared with parent compound 13","induce the most IFN-γ secretions; also recorded: highest IFN-γ cytokine production, more than double that of the α-GalCer induced IFN-γ secretion",more than three times more selective for IFN-γ release,Ki [1]: 0.14 µM; binding to CD1d in competition assay (in words) ([1]; listed as para-fluoroheptaphenyl-modified α-GalCer): two orders of magnitude stronger than α-GalCer
CCCCCCCCCCCCCC[C@@H](O)[C@@H](O)[C@H](CO[C@H]1O[C@H](CO)[C@H](O)[C@H](O)[C@H]1O)NC(=O)CCCCCCCc1ccc(OC)cc1 [Compound 19],–,"highest IFN-γ cytokine production, more than double that of the α-GalCer induced IFN-γ secretion",–,–
CCCCCCCCCCCCCC[C@@H](O)[C@@H](O)[C@H](CO[C@H]1O[C@H](CO)[C@H](O)[C@H](O)[C@H]1O)NC(=O)CCCCCCCc1ccc(-c2ccccc2)cc1 [Compound 21],lower binding activity; also recorded: weaker affinities to CD1d,less IFN-γ production,low selectivity between IFN-γ and IL-4,–
CCCCCCCCCCCCCC[C@@H](O)[C@@H](O)[C@H](CO[C@H]1O[C@H](CO)[C@H](O)[C@H](O)[C@H]1O)NC(=O)CCCCCCCCCCc1ccc(-c2ccccc2)cc1 [Compound 25],lower binding activity,–,–,–
CCCCCCCCCCCCCCCCCCCCCCCCCC(=O)N[C@@H](CO[C@H]1O[C@H](CO)[C@H](O)[C@H](O)[C@H]1O)[C@H](O)[C@H](O)CCc1ccccc1 [Compound 26],weaker agonist of mCD1d,–,–,–
"CCCCCCCCCCCCCCCCCCCCCCCCCC(=O)N[C@@H](CO[C@H]1O[C@H](CO)[C@H](O)[C@H](O)[C@H]1O)[C@H](O)[C@H](O)CCCCCCCCCCCCCC [α-GalCer, α-galactosyl ceramide]",–,–,–,Kd [3]: 5.9 µM; Ki [1]: 14 µM; Kd [4]: 9.7 µM; solubility in aqueous solution (in words) [5]: low solubility
